{"source": "patent US20220031684A1", "about": "“PROPHYLACTIC EFFICACY OF SEROTONIN 4 RECEPTOR AGONISTS AGAINST STRESS” (THE TRUSTEES OF COLUMBIA UNIVERSITY IN THE CITY OF NEW YORK, priority 2019, published 2022)", "key": {"129S6/SvEv mice [1]": {"system": "129S6/SvEv mice", "experiment": "Forced swim test (FST) after CFC", "type": "in vivo", "details": "for immobility, FST day 1 / immobility time, FST day 2 vs saline: male 129S6/SvEv; for immobility, FST day 1: (R,S)-ketamine 30, prucalopride 3 or 10, PF-04995274 3 or 10 mg/kg; for immobility time, FST day 2 vs saline: single injection 1 week before CFC", "method": "(§1) This chronic CORT elevation dysregulates the hypothalamic-pituitary-adrenal axis (HPA) in a manner similar to that observed in clinical depression. The dose and duration of CORT treatment was selected based on previous studies. CORT (35 μg/ml, equivalent to about 5 mg/kg/day) dissolved in 0.45% hydroxypropyl-o-cyclodextrin (0-CD) or vehicle (VEH) (0.45% j-CD) was available ad libitum in the drinking water in opaque bottles to protect it from light. VEH- and CORT-treated water was changed every 3 days to prevent possible degradation. Contextual Fear Conditioning (CFC): A 3-shock CFC procedure was administered as previously published. Briefly, mice were placed into context A and administered 3 2-s shocks (0.75 mA) at 180 s, 240 s or 300 s following placement into context A. Mice were removed from the context 15 s following the termination of shock (at 317 s). For context retrieval, mice were placed back into context A for 300 s. Electrophysiology: Electrophysiology was conducted as previously described. Statistical Analysis: Results from data analyses are expressed as means±SEM. Alpha was set to 0.05 for all analyses. Data were analyzed using GraphPad Prism v7.0 or v8.0. For all experiments, unless otherwise noted, one- or two-way ANOVAs with repeated-measures were applied to the data as appropriate. Significant main effects and/or interactions were followed by Fisher's PLSD post hoc analysis or unpaired t-tests. Drugs: All drugs were prepared in physiological saline and all injections were administered intraperitoneally (i.p.) in volumes of 0.1 cc per […] body weight unless otherwise noted. Fluoxetine hydrochloride (Flx): Flx (BioTrend Chemicals AG, BG197, Zurich, Germany) was administered in the drinking water (18 mg/kg/day) for 3 weeks before the start of CORT. […] (R,S)-ketamine (K): (R,S)-ketamine (Ketaset III, Ketamine HCl injection, Fort Dodge Animal Health, Fort Dodge, Iowa) was administered in a single dose at 30 mg/kg of body weight 1 week before the start of CFC. […] PF-04995274: PF-04995274 (Sigma, Catalog No. 1331782-27-4, St. Louis, Mo.) was administered a single dose at 3 or 10 mg/kg of body weight 1 week before the start of CFC. PF-04995274 was dissolved in saline using an ultrasonic homogenizer (BioLogics, Model 3000, Manassas, Va.). Osmotic minipump implantation: ALZET osmotic minipumps (Model 2004, […], 28 days) were implanted subcutaneously under isoflurane anesthesia as previously described [S2]. Osmotic minipumps were rotated under the skin two to three times per week. Behavioral Assays: All experiments were approved by the Institutional Animal Care and Use Committee (IACUC) at the New York Psychiatric Institute (NYSPI). Elevated Plus Maze (EPM): Testing was performed as previously described [S3]. Briefly, the maze is a plus-cross-shaped apparatus consisting of four arms, two open and two enclosed by walls, linked by a central platform at a height of 50 cm from the floor. Mice were individually placed in the center of the maze facing an open arm and were allowed to explore the maze for 5 min. The time spent in and the number of entries into the open arms was used as an anxiety index. Videos were scored using ANY-maze behavior tracking software (Stoelting, Wood Dale, Ill.). Novelty-Suppressed Feeding: The NSF is a conflict test that elicits competing motivations: the drive to eat and the fear of venturing into the center of a brightly lit arena. The latency to feed is used as an index of anxiety-like behavior, because classical anxiolytic drugs decrease this measure. The NSF test was carried out during an 8 min period as previously described [S3]. Briefly, the testing apparatus consisted of a plastic box (50×50×20 cm), the floor of which was covered with approximately 2 cm of bedding. For 129S6/SvEv experiments, mice were food restricted for 12 h. For the C57BL/6N experiments, mice were food restricted for 24 h. […]"}, "CA3 pyramidal cells": {"system": "CA3 pyramidal cells", "experiment": "Whole-cell voltage clamp recordings of spontaneous EPSCs in CA3 slices", "type": "cell-based, mice", "method": "as §1"}, "129S6/SvEv mice [2]": {"system": "129S6/SvEv mice", "experiment": "3-shock contextual fear conditioning (CFC)", "type": "in vivo", "details": "for freezing during CFC training / freezing at re-exposure to the training context (learned fear) vs saline: male 129S6/SvEv; for freezing during CFC training: (R,S)-ketamine 30, prucalopride 3 or 10, PF-04995274 3 or 10 mg/kg, 1 week before CFC, vs saline; for freezing at re-exposure to the training context (learned fear) vs saline: single i.p. injection 1 week before CFC, re-exposure 5 days later", "method": "as §1"}, "[3]": {"details": "FIG. 4 cohort, Male, FIG. 4F, RMANOVA, Fisher's LSD"}, "[4]": {"details": "FIG. 4 cohort, Male, FIG. 4G, ANOVA, Fisher's LSD"}, "[5]": {"details": "(R,S)-ketamine 30 mg/kg or prucalopride 3 mg/kg injected 1 week before slicing"}, "[6]": {"details": "FIG. 4 cohort, Male, FIG. 4C, RMANOVA, Fisher's LSD"}, "[7]": {"details": "FIG. 4 cohort, Male, FIG. 4D, ANOVA, Fisher's LSD"}}, "data": [{"smiles": "CNC1(c2ccccc2Cl)CCCCC1=O", "note": "(racemic) [(R,S)-ketamine]", "values": [{"measurement": "p, FST Day 2 Immobility Time (sec), (R,S)-ketamine (30 mg/kg) vs. PF04995274 (3 mg/kg)", "setting": "129S6/SvEv mice [1]; [3]", "result": 0.4094}, {"measurement": "p, FST Day 2 Immobility Time (sec), (R,S)-ketamine (30 mg/kg) vs. PF04995274 (10 mg/kg)", "setting": "129S6/SvEv mice [1]; [3]", "result": 0.3813}, {"measurement": "p, FST Day 2 Immobility Time (sec), (R,S)-ketamine (30 mg/kg) vs. Prucalopride (3 mg/kg)", "setting": "129S6/SvEv mice [1]; [3]", "result": 0.8332}, {"measurement": "p, FST Day 2 Immobility Time (sec), (R,S)-ketamine (30 mg/kg) vs. Prucalopride (10 mg/kg)", "setting": "129S6/SvEv mice [1]; [3]", "result": 0.1712}, {"measurement": "p, FST Day 2 Immobility Time (sec), Saline vs. (R,S)-ketamine (30 mg/kg)", "setting": "129S6/SvEv mice [1]; [3]", "result": 0.0218}, {"measurement": "p, FST Day 2 Immobility Time (min 3-6) (sec), (R,S)-ketamine (30 mg/kg) vs. PF04995274 (3 mg/kg)", "setting": "129S6/SvEv mice [1]; [4]", "result": 0.5815}, {"measurement": "p, FST Day 2 Immobility Time (min 3-6) (sec), (R,S)-ketamine (30 mg/kg) vs. PF04995274 (10 mg/kg)", "setting": "129S6/SvEv mice [1]; [4]", "result": 0.3207}, {"measurement": "p, FST Day 2 Immobility Time (min 3-6) (sec), (R,S)-ketamine (30 mg/kg) vs. Prucalopride (3 mg/kg)", "setting": "129S6/SvEv mice [1]; [4]", "result": 0.8478}, {"measurement": "p, FST Day 2 Immobility Time (min 3-6) (sec), (R,S)-ketamine (30 mg/kg) vs. Prucalopride (10 mg/kg)", "setting": "129S6/SvEv mice [1]; [4]", "result": 0.1763}, {"measurement": "p, FST Day 2 Immobility Time (min 3-6) (sec), Saline vs. (R,S)-ketamine (30 mg/kg)", "setting": "129S6/SvEv mice [1]; [4]", "result": 0.0330}, {"measurement": "immobility, FST day 1", "setting": "129S6/SvEv mice [1]", "result": "comparable levels of immobility"}, {"measurement": "immobility time, FST day 2 vs saline", "setting": "129S6/SvEv mice [1]; 30 mg/kg", "result": "decreased immobility time"}, {"measurement": "average EPSC amplitude vs saline", "setting": "CA3 pyramidal cells; [5]", "result": "no differences"}, {"measurement": "large AMPA receptor-mediated bursts of EPSCs", "setting": "CA3 pyramidal cells; [5]", "result": "not present"}, {"measurement": "number of EPSCs vs saline", "setting": "CA3 pyramidal cells; [5]", "result": "no differences"}, {"measurement": "p, CFC Re-exposure Freezing (%), (R,S)-ketamine (30 mg/kg) vs. PF04995274 (3 mg/kg)", "setting": "129S6/SvEv mice [2]; [6]", "result": 0.1027}, {"measurement": "p, CFC Re-exposure Freezing (%), (R,S)-ketamine (30 mg/kg) vs. PF04995274 (10 mg/kg)", "setting": "129S6/SvEv mice [2]; [6]", "result": 0.8015}, {"measurement": "p, CFC Re-exposure Freezing (%), (R,S)-ketamine (30 mg/kg) vs. Prucalopride (3 mg/kg)", "setting": "129S6/SvEv mice [2]; [6]", "result": 0.1343}, {"measurement": "p, CFC Re-exposure Freezing (%), (R,S)-ketamine (30 mg/kg) vs. Prucalopride (10 mg/kg)", "setting": "129S6/SvEv mice [2]; [6]", "result": 0.1023}, {"measurement": "p, CFC Re-exposure Freezing (%), Saline vs. (R,S)-ketamine", "setting": "129S6/SvEv mice [2]; [6]", "result": 0.0448}, {"measurement": "p, CFC Re-exposure, (R,S)-ketamine (30 mg/kg) vs. PF04995274 (3 mg/kg)", "setting": "129S6/SvEv mice [2]; [7]", "result": 0.1027}, {"measurement": "p, CFC Re-exposure, (R,S)-ketamine (30 mg/kg) vs. PF04995274 (10 mg/kg)", "setting": "129S6/SvEv mice [2]; [7]", "result": 0.8015}, {"measurement": "p, CFC Re-exposure, (R,S)-ketamine (30 mg/kg) vs. Prucalopride (3 mg/kg)", "setting": "129S6/SvEv mice [2]; [7]", "result": 0.1343}, {"measurement": "p, CFC Re-exposure, (R,S)-ketamine (30 mg/kg) vs. Prucalopride (10 mg/kg)", "setting": "129S6/SvEv mice [2]; [7]", "result": 0.1023}, {"measurement": "p, CFC Re-exposure, Saline vs. (R,S)-ketamine", "setting": "129S6/SvEv mice [2]; [7]", "result": 0.0448}, {"measurement": "freezing during CFC training", "setting": "129S6/SvEv mice [2]", "result": "comparable levels of freezing"}, {"measurement": "freezing at re-exposure to the training context (learned fear) vs saline", "setting": "129S6/SvEv mice [2]; 30 mg/kg", "result": "attenuated learned fear"}]}, {"smiles": "NS(=O)(=O)c1cccc2c1c([N+](=O)[O-])cc1nc(O)c(O)nc12", "note": "[NBQX, 2,3-dihydroxy-6-nitro-7-sulfamoyl-benzo[f]quinoxaline]", "values": [{"measurement": "large bursts of EPSCs in saline-treated mice", "setting": "CA3 pyramidal cells; NBQX 20 μM added to bath", "result": "completely blocked"}]}, {"smiles": "OC1(CN2CCC(COc3noc4cccc(OC5CCOC5)c34)CC2)CCOCC1", "note": "(stereo not shown) [PF-04995274]", "values": [{"measurement": "p, FST Day 2 Immobility Time (sec), PF04995274 (3 mg/kg) vs. PF04995274 (10 mg/kg)", "setting": "129S6/SvEv mice [1]; [3]", "result": 0.0941}, {"measurement": "p, FST Day 2 Immobility Time (sec), Saline vs. PF04995274 (3 mg/kg)", "setting": "129S6/SvEv mice [1]; [3]", "result": 0.1259}, {"measurement": "p, FST Day 2 Immobility Time (sec), Saline vs. PF04995274 (10 mg/kg)", "setting": "129S6/SvEv mice [1]; [3]", "result": 0.0023}, {"measurement": "p, FST Day 2 Immobility Time (min 3-6) (sec), Saline vs. PF04995274 (3 mg/kg)", "setting": "129S6/SvEv mice [1]; [4]", "result": 0.1050}, {"measurement": "p, FST Day 2 Immobility Time (min 3-6) (sec), Saline vs. PF04995274 (10 mg/kg)", "setting": "129S6/SvEv mice [1]; [4]", "result": 0.0027}, {"measurement": "immobility, FST day 1", "setting": "129S6/SvEv mice [1]", "result": "comparable levels of immobility"}, {"measurement": "immobility time, FST day 2 vs saline", "setting": "129S6/SvEv mice [1]; 10 mg/kg", "result": "decreased immobility time"}, {"measurement": "p, CFC Re-exposure Freezing (%), PF04995274 (3 mg/kg) vs. PF04995274 (10 mg/kg)", "setting": "129S6/SvEv mice [2]; [6]", "result": 0.0619}, {"measurement": "p, CFC Re-exposure Freezing (%), Saline vs. PF04995274 (3 mg/kg)", "setting": "129S6/SvEv mice [2]; [6]", "result": 0.6871}, {"measurement": "p, CFC Re-exposure Freezing (%), Saline vs. PF04995274 (10 mg/kg)", "setting": "129S6/SvEv mice [2]; [6]", "result": 0.0255}, {"measurement": "p, CFC Re-exposure, PF04995274 (3 mg/kg) vs. PF04995274 (10 mg/kg)", "setting": "129S6/SvEv mice [2]; [7]", "result": 0.0619}, {"measurement": "p, CFC Re-exposure, Saline vs. PF04995274 (3 mg/kg)", "setting": "129S6/SvEv mice [2]; [7]", "result": 0.6871}, {"measurement": "p, CFC Re-exposure, Saline vs. PF04995274 (10 mg/kg)", "setting": "129S6/SvEv mice [2]; [7]", "result": 0.0255}, {"measurement": "freezing during CFC training", "setting": "129S6/SvEv mice [2]", "result": "comparable levels of freezing"}, {"measurement": "freezing at re-exposure to the training context (learned fear) vs saline", "setting": "129S6/SvEv mice [2]; 10 mg/kg", "result": "attenuated learned fear"}]}]}
